What was measured:
[1] = tested on: human embryonic kidney (HEK-293) cell lines; test: MTS cell viability assay, non-cancerous cells; format: cell-based; settings: Homo sapiens
From the text: (§1) The compounds were further screened for their in vitro cytotoxicity against non-cancerous normal cell lines, viz., human embryonic kidney (HEK-293) and normal pig kidney (LLCPK) cell lines. These cell lines were selected to determine whether the compounds had selectivity against cancerous cells in contrast to non-cancerous cells. The data obtained is shown in Figure 3a–b (cf. Supplementary Materials for the data obtained for intermediates and starting materials Figure S28.7–S28.8, page no. 77–78).
(§2) Cell viability assays were performed using the MTS protocol. The in vitro cytotoxicity of the conjugates was evaluated using six human cancer cell lines, one human normal kidney cell line, and one mammalian normal kidney cell line, which included human leukemia carcinoma cell lines (CCRF-CEM), human ovarian adenocarcinoma cell lines (SKOV-3), human breast tumor cell lines (MDA-MB-231), human prostate cancer cell lines (PC-3), androgen-independent human prostate cancer cell lines (DU-145), human renal carcinoma (iSLK), human embryonic kidney cell lines (HEK-293), and normal mammalian kidney cell line (LLCPK) to determine the toxicity of the synthesized conjugates. CCRF-CEM cells were seeded at 50,000 cells in 0.1 mL per well in 96-well plates, and in the case of SKOV-3, MDA-MB-231, PC-3, DU-145, HEK-293, and LLCPK cell lines, the cells were seeded at 5000 cells in 0.1 mL per well in 96-well plates. The CCRF-CEM cells were seeded in RPMI-1640 media containing 2mM L-glutamine, 1.5 g/L sodium bicarbonate, supplemented with fetal bovine serum (FBS) 10% media, SKOV-3, MDA-MB-231, and LLCPK cells were seeded in MEME media with Earle’s salts and sodium bicarbonate, without L-glutamine, supplemented with fetal bovine serum (FBS) 10%, PC-3 cells were seeded in DMEM:F-12 containing 1:1 mixture with L-glutamine with HEPES, supplemented with fetal bovine serum (FBS) 10%, and DU-145 and HEK-293 cells were seeded in DMEM containing 4500 mg/L glucose, L-glutamine, and sodium bicarbonate, without sodium pyruvate, supplemented with FBS (10%), 24 h prior to the experiment. The compounds at a final concentration of 25 µM (higher concentration stock solution prepared in DMSO) were added to each well in triplicate and incubated for 24 and 72 h at 37 °C in a humidified atmosphere (95% air and 5% CO2). The cell viability was then determined by measuring the absorbance of the formazan product at 490 nm using a microplate reader using a SpectraMax M2 microplate spectrophotometer, Molecular Devices, San Jose, CA, USA. The percentage of cell survival was calculated as [(OD value of cells treated with the test mixture of compounds) − (OD value of culture medium)]/[(OD value of control cells) − (OD value of culture medium)] × 100%. IC50 values of compounds were calculated using non-linear regression analysis in GraphPad Prism (Boston, MA, USA).

[2] = tested on: normal pig kidney (LLCPK) cell lines; test: MTS cell viability assay, non-cancerous cells; format: cell-based; settings: Sus scrofa, conjugates at 25 μM, 72 h
From the text: as §1, §2

[3] = Proteolytic stability in human serum (HPLC); format: in vitro ADME; settings: 37 °C
Method: These compounds were further explored towards degradation by proteolytic enzymes towards degradation. Compound 5a was investigated for proteolytic stability in the presence of human serum. It was incubated with human serum at 37 °C, and aliquots of the reaction mixture were analyzed via HPLC at different time points up to 2 h. The concentration of Compound 5a was measured by integrating the area under the curve (AUC) and correspondingly calculated from the standard curve of 5a at different concentrations (cf. Supplementary Materials, page no. 81–82).
The HPLC chromatogram of serum incubated with compound 5a for 80 min was illustrated in Figure 5. […]
HPLC analysis was carried out to evaluate the proteolytic stability of selected conjugate 5a in the presence of human serum. First, different concentrations of Compound 5a were analyzed using the analytical HPLC, and a standard curve was plotted for the different concentrations of Compound 5a versus the area under the curve. […] The initial time was recorded, and 100 μL aliquots of the reaction mixture were removed and added to methanol (200 μL) for precipitation of serum proteins in human serum. […] A linear gradient from 10% to 100% acetonitrile/water in 65 min with a flow rate of 1.0 mL/min was used, and the absorbance of the eluting peaks was detected at 254 nm. […]

Cc1noc(C)c1C(=O)OCc1coc2ccccc2c1=O [Compound 5a, (4-Oxo-4H-1-benzopyran-3-yl)methyl 3,5-dimethylisoxazole-4-carboxylate]
IC50 ([1]; HEK293, normal HEK-293 cells, average of three independent tests in triplicate): 293 µM | inhibition at 25 µM ([1]; HEK293, conjugates at 25 μM, 72 h): 37% | inhibition at 25 µM [2]: 57% | degradation on incubation with human serum ([3]; after 2 h of incubation with human serum): completely degraded | half-life at 50 µM ([3]; human, human serum (25% v/v in RPMI media), human serum): ~13.6 min

Source: PMC10224329, “Design, Synthesis, and Antiproliferative Activity of Benzopyran-4-One-Isoxazole Hybrid Compounds” (Molecules, 2023)
